The text below walks through data of patent publication US20060099712A1, “Correlation of anti-cancer activity of dyes with redox potentials” (Eastman Kodak Company, priority 2004, published 2006).

A short description of this data set: Electrochemical oxidation potential measurement, SHACV / fast scan CV. Format: physicochemical. The following applies: Table XIX; oxidation potential vs. Ag/AgCl; in V (unit assumed). The text has this:
If a published reduction potential is not available, suitable techniques for measuring reduction potential are available. Accurate electrochemical oxidation and reduction potentials for these organic dyes can be measured by the techniques of fast scan cyclic voltommetry (CV) or second harmonic ac voltommetry (SHACV). SHACV measurements are made as described by Lenhard in the Journal of Imaging Science volume 30, 1986 pp 27-35 using a commercially available (Princeton Applied Research Corp.) potentiostat in conjunction with voltage programmer, a conventional lock-in amplifier, and a low-distortion oscillator. The SHACV method utilizes an ac voltage waveform (of a frequency greater than or equal to 400 hz) that is superimposed on a DC potential ramp. On the other hand, the measurement of the oxidation or reduction potential by the CV method utilizes a (high frequency) triangular voltage waveform. The general procedures for measuring potentials by this method have been described by Wightman in Analytical Chemistry, 1984, vol. 56, pp524 and Journal of Physical Chemistry, 1984, vol. 88, pp3915. The specific application of this technique to the measurement of cyanine dye potentials has been reported by Nomura and Okazaki, Chemistry Letters, 1990, pp2231-2234. Commercial instrumentation especially designed for fast scan (i.e., high frequency) CV is available. It is noteworthy that because of the complicated nature of many of the cyanine dyes, electrochemical reactions, conventional slow scan cyclic voltommetry or polarography methods (as described by R. Large in Photographic Sensitivity, R. Cox, ed., Academic Press, New York, 1973, pp 241-263) provide only approximate values for oxidation and reduction potentials. Errors as large as 0.4 V from the true potential can be obtained by using slow scan CV or electrochemical methods.
The procedure for measuring the oxidation or reduction potential by the SHACV or fast scan CV method utilizes solutions of acetonitrile (or similar nonaqueous solvent) with added tetrabutylammonium tetrafluoroborate TBABF4 at a concentration of 0.1 M and ca. 5×10^−4 M of the cyanine, oxonol, or merocyanine dye. For measurement of the reduction potential the solution must be deaerated with argon prior to examination. The preferred working electrode is a Pt disk (ca. 0.02 cm^2) that is polished with 1 μm diamond paste, rinsed with water, and dried before each experiment. The reference electrode is a NaCl saturated calomel electrode. The cell and reference electrodes are maintained at 22 C. A value of 40 mV is added to the measured potentials to convert the number to that corresponding to an Ag/AgCl reference electrode. If a solvent other than acetonitrile is used then the measured potential must be referenced to a standard organic redox system such as ferrocene and corrected accordingly.
The procedure for measuring the oxidation or reduction potential by the SHACV method utilizes solutions of acetonitrile (or similar nonaqueous solvent) with added tetrabutylammonium tetrafluoroborate TBABF4 at a concentration of 0.1 M and ca. 5×10^−4 M of the cyanine, oxonol, or merocyanine dye. […] A value of 40 mV is added to the measured potentials to convert the number to that corresponding to an Ag/AgCl reference electrode. If a solvent other than acetonitrile is used then the measured potential must be referenced to a standard organic redox system such as ferrocene and corrected accordingly.
`CCN1/C(=C/C=C/c2sc3cc4ccccc4cc3[n+]2CC)Sc2cc3ccccc3cc21` [Dye D-160] gave an Eox of 1.015.
To `CCN1/C(=C/C=C/c2sc3cc4ccccc4cc3[n+]2CC)Sc2cc3ccccc3cc21` [Dye D-109] belongs 1.015; to `CCN1/C(=C\C=C\C2=[N+](CC)c3ccccc3C2(C)C)C(C)(C)c2ccccc21` [Dye D-103], 1.088; to `CCN1/C(=C/C=C/c2sc3ccccc3[n+]2CC)Sc2ccccc21.[I-]` [Dye D-101], 0.902.
To `CCN1C(=CC=Cc2sc3cc4ccccc4nc3[n+]2CC)Sc2cc3ccccc3nc21` [Dye D-150] belongs 1.145.
